Experimental data reported in ChEMBL document CHEMBL5715952 (Oncotarget, 2015).

Key:
[1] = Inhibition of CSF1R/FLT3 in human RPMI-8226 cells assessed as reduction of cell growth incubated for 72 hrs by CellTiter 96 aqueous one solution cell proliferation assay; type: cell-based; details: RPMI-8226, 72 h
[2] = Inhibition of CSF1R/FLT3 in bortezomib Resistant human RPMI-8226 cells assessed as reduction of cell growth incubated for 72 hrs by CellTiter 96 aqueous one solution cell proliferation assay; type: cell-based; details: Bortezomib-resistant RPMI-8226, 72 h
[3] = Inhibition of CSF1R/FLT3 in Melphalan Resistant human RPMI-8226 cells assessed as reduction of cell growth incubated for 72 hrs by CellTiter 96 aqueous one solution cell proliferation assay; type: cell-based; details: Melphalan-resistant RPMI-8226 cell
[4] = Inhibition of CSF1R/FLT3 in human ANBL-6 cells assessed as reduction of cell growth incubated for 72 hrs by CellTiter 96 aqueous one solution cell proliferation assay; type: cell-based; details: ANBL-6, 72 h
[5] = Inhibition of CSF1R/FLT3 in human bortezomib-resistant ANBL6 cells assessed as reduction of cell growth incubated for 72 hrs by CellTiter 96 aqueous one solution cell proliferation assay; type: cell-based
[6] = Inhibition of CSF1R/FLT3 in human U-266 cells assessed as reduction of cell growth incubated for 72 hrs by CellTiter 96 aqueous one solution cell proliferation assay; type: cell-based; details: U-266, 72 h
[7] = Ratio of IC50 for inhibition of CSF1R/FLT3 in human RPMI-8226 cells assessed as reduction of cell viability to IC50 for inhibition of CSF1R/FLT3 in human melphalan-resistant RPMI-8226 cells assessed as reduction of cell viability; details: time 72 hrs; condition multiple myeloma
[8] = Ratio of IC50 for inhibition of CSF1R/FLT3 in human RPMI-8226 cells assessed as reduction of cell viability to IC50 for inhibition of CSF1R/FLT3 in human RPMI-8226/BR resistant cells assessed as reduction of cell viability; details: condition multiple myeloma
[9] = Ratio of IC50 for inhibition of CSF1R/FLT3 in human ANBL6 cells assessed as reduction of cell viability to IC50 for inhibition of CSF1R/FLT3 in human ANBL6/BR resistant cells assessed as reduction of cell viability; details: condition multiple myeloma
[10] = Ratio of IC50 for inhibition of hedgehog in human RPMI-8226 cells assessed as reduction of cell viability to IC50 for inhibition of hedgehog in human melphalan-resistant RPMI-8226 cells assessed as reduction of cell viability; details: time 72 hrs; condition multiple myeloma
[11] = Ratio of IC50 for inhibition of hedgehog in human RPMI-8226 cells assessed as reduction of cell viability to IC50 for inhibition of hedgehog in human RPMI-8226/BR resistant cells assessed as reduction of cell viability; details: condition multiple myeloma
[12] = Ratio of IC50 for inhibition of hedgehog in human ANBL6 cells assessed as reduction of cell viability to IC50 for inhibition of hedgehog in human ANBL6/BR resistant cells assessed as reduction of cell viability; details: condition multiple myeloma
cells [13] = details: Homo sapiens, RPMI-8226, 72 h
cells [14] = details: Homo sapiens, Bortezomib-resistant RPMI-8226, 72 h
cells [15] = details: Homo sapiens, Melphalan-resistant RPMI-8226 cell, 72 h
cells [16] = details: Homo sapiens, ANBL-6, 72 h
cells [17] = details: Homo sapiens, Bortezomib-resistant ANBL6 cell, 72 h
cells [18] = details: Homo sapiens, U-266, 72 h

Compound: CN(C)CC(=O)N1CCC(c2ccc(NC(=O)c3nc(C#N)c[nH]3)c(C3=CCCCC3)c2)CC1
- IC50 [1]: 10 µM
- IC50 [2]: 10 µM
- IC50 [3]: 10 µM
- IC50 [4]: 10 µM
- IC50 [5]: 10 µM
- IC50 [6]: 10 µM
- Ratio IC50 [7]: 1
- Ratio IC50 [8]: 1
- Ratio IC50 [9]: 1

Compound: CS(=O)(=O)c1ccc(C(=O)Nc2ccc(Cl)c(-c3ccccn3)c2)c(Cl)c1 [VISMODEGIB]
- Ratio IC50 [10]: 1
- Ratio IC50 [11]: 1
- Ratio IC50 [12]: 1
- IC50 (cells [13]): 10 µM
- IC50 (cells [14]): 10 µM
- IC50 (cells [15]): 10 µM
- IC50 (cells [16]): 10 µM
- IC50 (cells [17]): 10 µM
- IC50 (cells [18]): 10 µM
